Counter-ions that a name gives are not always drawn.
Key:
P2Y6R [1] = target: T1, P2Y6R (Homo sapiens, UniProt Q15077); experiment: Fluorescent ligand binding of 28 by flow cytometry; conditions: 100 nM for 30 min at 37 °C in the presence of 125 (100 μM)
P2Y6R [2] = target: T1, P2Y6R; experiment: Fluorescence microscopy of P2Y6R-expressing 1321N1 astrocytoma cells; assay type: cell-based; conditions: 1 μM, 30 min at 37 °C, in presence and absence of 118 (10 μM)

T1 sequence (Q15077 whole entry): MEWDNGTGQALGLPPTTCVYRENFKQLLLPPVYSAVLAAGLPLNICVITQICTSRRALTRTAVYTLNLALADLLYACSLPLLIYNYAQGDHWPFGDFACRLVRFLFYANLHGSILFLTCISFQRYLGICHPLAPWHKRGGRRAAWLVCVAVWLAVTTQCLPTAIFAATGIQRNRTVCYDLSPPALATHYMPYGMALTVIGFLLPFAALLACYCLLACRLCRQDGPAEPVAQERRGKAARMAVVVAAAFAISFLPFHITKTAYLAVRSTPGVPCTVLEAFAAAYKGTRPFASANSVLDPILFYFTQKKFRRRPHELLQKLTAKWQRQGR

Cell labeling by fluorescent ligand (FCM) (P2Y6R [1]): significant cell labeling
SMILES: O=C(CCCCCNC(=O)COc1ccc(/C=C/c2ccc3n2[B-](F)(F)[N+]2=C(c4cccs4)C=CC2=C3)cc1)NCCCn1cc(CCNC(=O)COc2ccc(CCCO/N=c3/ccn([C@@H]4O[C@H](COP(=O)(O)OP(=O)(O)OP(=O)(O)O)[C@@H](O)[C@H]4O)c(=O)[nH]3)cc2)nn1 [Compound 28, N^4-(3-((4-O-CH2CONH-(CH2)2(BODIPY-1H-1,2,3-Triazol-4-yl))phenyl)propyloxy)cytidine-5′-triphosphate Triethylammonium Salt]
Labeling of cells expressing the receptor (fluorescence microscopy) (P2Y6R [2]): specifically labeled cells expressing the receptor

From publication PMC4018175 (Journal of Medicinal Chemistry, 2014)
